Data set [1] concerns A549 cells. In words: Western blot of cell cycle inhibitors, cyclins and phospho-Rb in A549 cells. Format: cell-based, human. As for the experimental part: FIGS. 3A-3B are bar graphs and digital images showing the effect of LY303511 on the levels of cell cycle inhibitors and cyclins. A549 cells (˜1×10^6 cells per 100-mm dish) were grown for 48 h before addition of 0.1% DMSO, 100 μM LY303511, or rapamycin, 200 ng/ml, for 0, 12, or 24 hours. At the indicated times, cells were homogenized and stored at −80° C. For Western blot analyses, samples (70 μg) of lysate proteins separated by SDS-PAGE were transferred to nitrocellulose membranes and reacted with the following antibodies: A. Phospho-S6K T389 (pS6K), p27 Kip1, p21 Cip1, phospho-Rb S807/S811, or B. Cyclin A, Cyclin B, Cyclin D, and Cyclin E. All blots are from one experiment. Data below (relative density) are means of densitometric values from duplicate dishes treated with inhibitors for 24 hours relative to DMSO control=1.0 in three experiments. *p<0.05 vs. DMSO control by Student's t-test.
In another experiment, A549 cells were grown to sub-confluence in serum-containing media, and incubated with a vehicle, 100 mcM LY303511, or rapamycin, 200 ng/ml for 0, 12, or 24 hours. Cells were lysed, and proteins separated by SDS-PAGE before transfer to nitrocellulose membranes. Membranes were incubated with antibodies against p27Kip1, p21 Cip1 orphospho-P70 S6 kinase T389.
(In general: In western blotting, separated proteins are transferred to a membrane and probed.)

Data set [2] relates to STAT1. In words: STAT1-driven luciferase reporter (GAS-luc) in A549 cells. Format: cell-based, human. To be noted: 100 mcM LY303511 1 hour before LPS/IFN-γ for 6 hours. As for the experimental part: A549 cells were transiently transfected with a reporter vector expressing firefly luciferase driven by STAT1 (GAS-luc, Clontech), and incubated without or with 100 mcM LY303511, rapamycin, 200 ng/ml, or both, for 1 hour before addition of LPS/IFN-γ for 6 hours. STAT1 activity (luciferase activity) was measured in cell lysates (RLU). The data presented are triplicate samples ±SEM, and are representative of two independent experiments.
A549 cells were transiently transfected with a reporter vector expressing firefly luciferase driven by STAT1 (GAS-luc, Clontech), and incubated without or with 100 mcM LY303511, rapamycin, 200 ng/ml, or both, for 1 hour before addition of LPS/IFN-γ for 6 hours. STAT1 activity (luciferase activity) was measured in cell lysates (RLU). The data presented in FIG. 8 are triplicate samples±SEM, and are representative of two independent experiments.
(In general: In a reporter assay the amount or activity of a reporter protein is the signal.)

In data set [3] the test system is A549 cells. In words: Propidium iodide flow cytometry cell cycle analysis in A549 cells. Format: cell-based, human. In general terms: In flow cytometry, cells or beads pass a laser one at a time.
Data set [4] deals with PC-3 cells. The data set can be described thus: PC-3 prostate adenocarcinoma tumor growth in nude mice. Format: in vivo, mouse. As for the experimental part:
FIG. 6A-6B are bar graphs showing that LY303511 inhibits the growth of prostate adenocarcinoma cells (PC-3) cells in nude mice. LY303511, 10 mg/kg/d was administered intraperitoneally to attenuate PC-3 tumor growth in nude mice. The degree of growth inhibition was proportional to the duration of treatment with LY303511. […] FIG. 6C is a graph of a Kaplan-Mieir survival analysis. The analysis includes the premise that an event happens when a tumor reaches 300 mm^3. The y-axis depicts the probability that tumor size is less than 300 mm^3.
The effect of LY303511 on tumor growth was assessed in vivo. Human prostate adenocarcinoma cells (PC-3 cells, ATCC No. CTL-1435) were culture in vitro 5 before harvesting and implantation. For each mouse, 1×10^6 cells in 20% Matrigel™ (matrix) were implanted by subcutaneous injection into the flank. Mice were subdivided into six groups of ten mice each. Treatment protocols were begun (Day 1) when tumors reached approximately 150 mm^3, and tumor volumes (=Caliper length×width^2/2) were measured for thirty days at the indicated time points. Data were expressed as the average tumor volume +/− SEM for each treatment group and time point. The data is shown both in FIG. 6A and 6B. (*p<0.05 by one way ANOVA for inter-group comparisons at each time point. FIG. 6C is a Kaplan-meier analysis, representing the probability that tumor volumes are less than 300 mm^3 at any given time point (p<0.001 by log-rank test for inter-group comparison).

Data set [5] deals with mTOR. The data set can be described thus: Western blot of phospho-mTOR S2481 in PASM cells. Format: cell-based, human. As to the method: HPASM cells were purchased from Clonetics and passaged according to the manufacturer's instructions. Cells were plated in 100 mm dishes, and allowed to grow to near confluence before serum starvation for 24 hours. Inhibitors were added to the media 1 hour before the addition of 10% FBS for 30 minutes. Cells were homogenized and the indicated proteins were detected by Western blot.
Measurement of protein phosphorylation: A549 cells were incubated in serum-free medium without or with inhibitors for 1 hour, as indicated, before incubation for 30 minutes with a mixture of LPS, 100 μg/ml (Sigma; St. Louis, Mo.) and IFN-γ, 100 U/ml (Roche; Nutley, N.J.). PASM cells were incubated in serum-free medium without or with inhibitors for 24 h as indicated, before incubation for 30 min with 10% FBS. A549 or PASM cells were washed once with cold PBS and incubated for 15 minutes on ice ih lysis buffer (20 mM Tris pH 8.0, 1% Nonidet P-40, 1 mM EDTA, 5 mM benzamidine, aprotinin, 10 μg/ml, leupeptin, 10 μg/ml, trypsin soybean inhibitor, 1 mM PMSF, 50 mM sodium fluoride, 100 μM sodium orthovanadate, and 1: 100 Sigma phosphatase inhibitor set I containing cantharidin, microcystin LR and bromotetramizole). After freezing and thawing, lysates were centrifuged for 30 min at 16,000×g before protein measurement and storage at −80° C. […] Integrated band densities were quantified using Scion Image beta 3b software.

The mark [6] stands for this setting: 100 mcM LY303511 or rapamycin 200 ng/ml, 12 and 24 hours.

As to `O=c1cc(N2CCNCC2)oc2c(-c3ccccc3)cccc12` [LY303511, 2-(4-piperazinyl)-8-phenyl-4H-1-benzopyran-4-one], the “phosphorylation of Rb (S807/S811)” value in data set [1] (100 mcM LY303511) was “reduced the phosphorylation of Rb”. In data set [1] (100 mcM LY303511 or rapamycin 200 ng/ml), the “levels of cyclin A and B” value is “decreased levels of cyclin A and B”. In data set [1] (setting [6]), the “p21 Cip1 level” value is recorded as “significant increase in p21 Cip1” and the p27Kip1 level result is reported as “accumulation of p27Kip1”. Moreover, the “STAT1 activation (luciferase activity)” value in data set [2] is “inhibited STAT1 activation”. Further, in data set [3] (100 μM LY303511, 24 hours), the “proportion of cells in G2/M” value is “remained unchanged”. The “fraction of cells in S phase” value in data set [3] (24 hours, 10 or 100 μM LY303511 without or with rapamycin 200 ng/ml) is “significantly reduced the fraction of cells in S phase”. Moreover, the apoptosis or necrosis entry in data set [3] (flow cytometric analysis of propidium iodide-stained cells) was “did not induce apoptosis or necrosis”. The “degree of growth inhibition versus duration of treatment” value in data set [4] (10 mg/kg daily for 5, 10 or 20 days) is “direct proportional to the duration of treatment”. The “tumor growth inhibition, 20 day course versus ten day course” value in data set [4] (10 mg/kg daily, FIG. 6C) is listed as “as effective at inhibiting tumor growth as a ten day course”. In data set [4] (10 mg/kg intraperitoneally daily), the PC-3 tumor growth result was “inhibited the growth of prostate adenocarcinoma cells”. Also, the tumor burden entry in data set [4] (LY303511 10 mg/kg daily, Doxorubicin 10 mg/kg once on Day 1) is “decrease tumor burden”. The “serum-stimulated phosphorylation of mTOR at S2481” value in data set [5] was “inhibited serum-stimulated phosphorylation of mTOR at S2481”.

For the origin of these results see patent US8044057B2, “Methods for suppressing an immune response or treating a proliferative disorder” (The United States of America as represented by the …, priority 2003, dated 2011).
